Laboratory results published in patent US20240358735A1, “THERAPEUTIC COMPOSITIONS AND RELATED METHODS” (BOYCE THOMPSON INSTITUTE FOR PLANT RESEARCH, INC., priority 2021, published 2024).

How the values were obtained:
[1] = system: proteasome alpha and beta subunits; test: Thermal proteome profiling (TPP) of C. elegans lysates; assay type: binding; settings: compound 0.1 mM; for thermal stability of majority detected proteasome alpha and beta subunits (TPP): C. elegans lysate 1 mg/mL, 15 min room temperature, heated; for thermal stability of proteasome subunit PBS-1 (TPP): FIG. 36, C. elegans lysate
Text: (§1) To investigate the cellular interactors of MOGLs, two independent approaches were applied: thermal proteome profiling (TPP) and limited proteolysis-coupled mass spectrometry (LiP-MS), to uncover binding events upon compound treatment of C. elegans lysates using MOGLs of the sngl-class as an example. […] Moreover, there were multiple peptides from proteasome alpha subunits and one peptide from the beta unit that were differential, with absence-present contrast, in the LiP-MS experiment (FIG. 35). Results from these two assays which reflect distinct biophysical properties of protein-small molecule binding, strongly support interaction between sngl #1 and sngl #2 with the proteasome.
C. elegans lysate preparation and compound incubation. Synchronized pah-1(syb3596); tph-1(mg280) double knockout C. elegans were grown with ΔtnaA E. coli (JW3686-7) for two generations; growth conditions and harvesting procedures were as described in the ‘Nematode cultures’ section above. Worms were lysed by sonication with lysis buffer (25 mM Tris pH 7.5, 150 mM NaCl, 1.5 mM MgCl2.1 mM phenylmethylsulfonyl fluoride, 1× protease inhibitor cocktail (Roche), 1 mM sodium fluoride) for 5 min (3 s on/off pulse cycle at Amp 100). Protein concentration was determined by Bradford assay (MilliporeSigma) and diluted to 1 mg/mL by lysis buffer. To each aliquot of lysate was added compound (sngl #1, sngl #2, N-acetylserotonin, and solvent (ethanol) control (Mock)) to a final concentration of 0.1 mM and the mixtures were shaken for 15 min at room temperature.
Thermal proteome profiling (TPP) sample preparation. Methods were modified from published protocol (Franken, H., T. et al. Nature Protocols 10(10): 1567-1593). Lysate-compound mixture were aliquoted into 0.2-mL PCR tubes, heated at specified temperatures for 3 min using a Thermal Cycler (BioRad), centrifuged at 16,000 g at 4° C. for 5 min, and the supernatant were transferred into Eppendorf tubes. Four volumes of prechilled (−20° C.) acetone were added to each sample for precipitation of proteins overnight. Samples were centrifuged at 16,000 g at 4° C. for 20 min, washed once by methanol, and the resulting protein pellets were dissolved in urea buffer (50 mM ammonium bicarbonate, 2 M thiourea, 6 M urea). To digest proteins for mass spectrometry analysis, proteins were first reduced by dithiothreitol (final concentration 5 mM) for 30 min at room temperature, alkylated by iodoacetamide (final concentration 15 mM) for 30 min at room temperature in the dark, digested by LysC/Trypsin Mix (Promega) (enzyme/substrate=1/30, w/w) based on manufacturer's instructions. […] Peptides were measured by nanoHPLC-MS/MS by standard methods.

[2] = system: proteasome alpha and beta subunits; test: Limited proteolysis-coupled mass spectrometry (LiP-MS) of C. elegans lysates; assay type: binding; settings: FIG. 35; C. elegans lysate, compound 0.1 mM, proteinase K
Text: as §1
To obtain mechanistic insight into the binding of proteasome with sngl #1/sngl #2, LiP-MS data were analyzed to reveal peptides around sub-structures of proteins where the binding occurs.
C. elegans lysate preparation and compound incubation. Synchronized pah-1(syb3596); tph-1(mg280) double knockout C. elegans were grown with ΔtnaA E. coli (JW3686-7) for two generations; growth conditions and harvesting procedures were as described in the ‘Nematode cultures’ section above. […] Protein concentration was determined by Bradford assay (MilliporeSigma) and diluted to 1 mg/mL by lysis buffer. […]

Row | Compound | thermal stability of majority detected proteasome alpha and beta subunits (TPP) [1] | thermal stability of proteasome subunit PBS-1 (TPP) [1] | PAS- or PBS-derived peptides detected in LiP-MS [2]
1 | CC(=O)NCCc1c[nH]c2ccc(O[C@@H]3O[C@H](CO)[C@@H](O)[C@H](O)[C@H]3O)cc12 [sngl #1, N-(2-(5-(((2S,3R,4S,5S,6R)-3,4,5-trihydroxy-6-(hydroxymethyl)tetrahydro-2H-pyran-2-yl)oxy)-1H-indol-3-yl)ethyl)acetamide] | significantly change the thermal stability | affect the thermal stability | indicative of specific binding to PAS and PBS
2 | CC(=O)NCCc1c[nH]c2ccc(O[C@@H]3O[C@H](CO)[C@@H](O)[C@H](OP(=O)(O)O)[C@H]3O)cc12 [sngl #2, (2S,3R,4S,5R,6R)-2-((3-(2-acetamidoethyl)-1H-indol-5-yl)oxy)-3,5-dihydroxy-6-(hydroxymethyl)tetrahydro-2H-pyran-4-yl dihydrogen phosphate] | significantly change the thermal stability | affect the thermal stability | indicative of specific binding to PAS and PBS
